Key:
GmCERK1^ECDY109R = assay: MST binding to GmCERK1^ECD mutant Y109R; parameters: species or system soybean (Glycine max); conditions: ligand dp6
Excerpt: (§1) The ectodomains of GmCERK1, GmNFR5a, and mutants were cloned into the yeast expression vector pPICZαA (Thermo Fisher Scientific, Shanghai, China) through the double digestion and ligation using the restriction endonuclease EcoRI/XbaI (NEB, Suzhou, China) and T4 ligase. Then, the linearized recombinant plasmid pPICZαA‐GmCERK1 and pPICZαA‐GmNFR5a were transformed into P. pastoris X‐33. The positive colonies were selected on YPDS medium (1% w/v yeast extract, 2% w/v peptone, 2% w/v glucose, 2% w/v agar, 100 μg/mL antibiotic Zeocin (Thermo Fisher Scientific)) plates and verified by direct DNA sequencing. Protein expression was carried out initially in BMGY media (100 mM potassium phosphate pH 6.0, 1.34% w/v YNB, 4 × 10^−5% w/v biotin, 1% v/v glycerol) at 28°C with shaking (180 rpm) until the OD600 reached 2.0–6.0. The cell pellet was transferred into BMMY medium (100 mM potassium phosphate pH 6.0, 1.34% w/v YNB, 4 × 10^−5% w/v biotin, 0.5% v/v methanol) and continuously supplied with the addition of 0.5% (v/v) methanol every day for 5 d. […]
(§2) GmCERK1^ECD, GmNFR5a^ECD, and all mutants were labeled with a fluorescent dye using the Monolith Protein Labeling Kit RED‐NHS second Generation (MO‐L011). […] The data were analyzed and fitted by plotting ligand concentrations against bound fractions using the MO.Affinity Analysis v3.0.5 software. […]

GmCERK1^ECDI137R = assay: MST binding to GmCERK1^ECD mutant I137R; parameters: species or system soybean (Glycine max); conditions: ligand dp6
Excerpt: as §1, §2

GmNFR5a^ECDL153R = assay: MST binding to GmNFR5a^ECD mutant L153R; parameters: species or system soybean (Glycine max); conditions: ligand dp6
Excerpt: as §1, §2

[1] = tested on: soybean leaf discs (ROS burst); assay: Luminol-based ROS burst assay in soybean leaf discs; type: cell-based, soybean (Glycine max); conditions: 50 mg/L, leaf discs of soybean Williams, dH2O negative control
Experimental: To measure the oxidation burst, leaf discs (Ø 0.5 cm) collected from 2-week-old soybean (cultivar Williams) were floated overnight in 200 μL sterile H2O in a 96-well plate. The H2O was replaced with 200 μL reaction buffer containing luminol/peroxidase ([…] luminol, 10 mg/mL peroxidase) and chitooligosaccharides treatments (50 mg/L). flg22 was used as a positive control. The luminescence was measured using a GLOMAX96 microplate luminometer (Promega, Madison, WI, USA). The experiments for MAPK activation were carried out as described previously ([[…] et al., 2014]). The MAPK activation was determined by immunoblots with anti-phospho-p44/42 MAPK antibody (#4370; Cell Signaling, Boston, MA, USA).

Phytophthora sojae P6497 = assay: P. sojae infection of pretreated soybean hairy roots (GFP control); type: in vivo, Phytophthora sojae on soybean (Glycine max); conditions: control hairy roots expressing GFP; 50 mg/L soak 12 h; 48 hpi; vs dH2O; P < 0.0001
Excerpt: Soybean (cultivar Williams) seeds were surface sterilized and germinated as previously described ([Kereszt et al., 2007]). Soybean cotyledons were removed from […] seedlings grown in vermiculite. Cotyledons were harvested at Day 7 by gently twisting them off the hypocotyl. Only unblemished cotyledons were employed for all protocols. Individual cotyledons were surface sterilized by wiping with an alcohol swab soaked in 70% ethanol. The alcohol swab was wrung out slightly before use, so that it was wet but not dripping. […] Hairy roots were monitored for green fluorescence production over a period of 4 weeks. For silencing in hairy roots, the transcript levels of the targeted gene and its closest paralogs were measured in fluorescent green hairy roots using qRT‐PCR to assess silencing efficiency.
For soybean etiolated hypocotyls inoculation assays, etiolated hypocotyls of soybean (cultivar Williams) were inoculated with P. sojae zoospore suspensions (100 zoospores). […] For soybean hairy‐root inoculation assays, transgenic hairy roots were soaked in CTOS/CSOS (50 mg/L) or mock (dH2O) for 12 h and then were infected with red fluorescent protein (RFP)‐labeled P. sojae strain P6497, and fluorescence was visualized in the infected area of soybean hairy root and the biomass of P. sojae was determined by qRT‐PCR at 48 hpi.

Structure (SMILES) | interaction with GmCERK1^ECDY109R (GmCERK1^ECDY109R) | interaction with GmCERK1^ECDI137R (GmCERK1^ECDI137R) | interaction with GmNFR5a^ECDL153R (GmNFR5a^ECDL153R) | ROS burst [1] | soybean defense against P. sojae (pathogen biomass) (Phytophthora sojae P6497)
N[C@H]1[C@H](O[C@H]2[C@H](O)[C@@H](N)[C@H](O[C@H]3[C@H](O)[C@@H](N)[C@H](O[C@H]4[C@H](O)[C@@H](N)[C@H](O[C@H]5[C@H](O)[C@@H](N)[C@H](O[C@H]6[C@H](O)[C@@H](N)C(O)O[C@@H]6CO)O[C@@H]5CO)O[C@@H]4CO)O[C@@H]3CO)O[C@@H]2CO)O[C@H](CO)[C@@H](O)[C@@H]1O (some centres unmarked) [CSOS (dp6), chitosan oligosaccharide] | cannot interact | cannot interact | cannot interact | – | –
CC(=O)N[C@H]1[C@H](O[C@H]2[C@H](O)[C@@H](NC(C)=O)[C@H](O[C@H]3[C@H](O)[C@@H](NC(C)=O)C(O)O[C@@H]3CO)O[C@@H]2CO)O[C@H](CO)[C@@H](O[C@@H]2O[C@H](CO)[C@@H](O[C@@H]3O[C@H](CO)[C@@H](O[C@@H]4O[C@H](CO)[C@@H](O)[C@H](O)[C@H]4NC(C)=O)[C@H](O)[C@H]3NC(C)=O)[C@H](O)[C@H]2NC(C)=O)[C@@H]1O (some centres unmarked) [CTOS (dp6), chitin oligosaccharide] | – | – | – | stronger ROS burst than that of CTOS (dp4) | significantly bolstered

From PMC12782889, “A GmNRF5a–GmCERK1–GmCAK1 module mediates chitin/chitosan‐triggered immune response in soybean” (Journal of Integrative Plant Biology, 2025)
